Assay results published in ChEMBL document CHEMBL1833895, “Synthesis and biological activity of desmethoxy analogues of coruscanone A” (Bioorg Med Chem Lett, 2011).

Key:
[1] = tested on: Lichtheimia corymbifera; experiment: Antifungal activity against Absidia corymbifera 272 after 24 hrs by microdilution method; type: functional, organism-based; conditions: Lichtheimia corymbifera, 272, 24 h
[2] = Cytostatic activity against human HeLaS3 cells at 10 umol/L after 48 hrs by XTT assay; type: ADME, cell-based; conditions: hela s3, 48 h, 10 µM
[3] = tested on: HT-29; experiment: Cytostatic activity against human HT-29 cells at 10 umol/L after 72 hrs by XTT assay; type: ADME, cell-based; conditions: ht-29, 72 h, 10 µM
[4] = tested on: Candida albicans; experiment: Antifungal activity against Candida albicans ATCC 90028 after 48 hrs by microdilution method; type: functional; conditions: ATCC 90028, 48 h
[5] = tested on: Pichia kudriavzevii; experiment: Antifungal activity against Candida krusei E28 after 48 hrs by microdilution method; type: functional; conditions: E28, 48 h
[6] = Cytostatic activity against human COLO201 cells at 10 umol/L after 72 hrs by XTT assay; type: ADME, cell-based; conditions: colo 201, 72 h, 10 µM
[7] = tested on: Candida tropicalis; experiment: Antifungal activity against Candida tropicalis 156 after 24 hrs by microdilution method; type: functional; conditions: Candida tropicalis, 156, 24 h
[8] = tested on: Trichosporon asahii; experiment: Antifungal activity against Trichosporon asahii 1188 after 24 hrs by microdilution method; type: functional; conditions: Trichosporon asahii, 1188, 24 h
[9] = tested on: Trichophyton mentagrophytes; experiment: Antifungal activity against Trichophyton mentagrophytes 445 after 120 hrs by microdilution method; type: functional, organism-based; conditions: Trichophyton mentagrophytes, 445, 120 h
[10] = tested on: Candida parapsilosis; experiment: Antifungal activity against Candida parapsilosis ATCC 22019 after 24 hrs by microdilution method; type: functional; conditions: Lodderomyces parapsilosis, ATCC 22019, 24 h
[11] = tested on: Trichophyton mentagrophytes; experiment: Antifungal activity against Trichophyton mentagrophytes 445 after 72 hrs by microdilution method; type: functional, organism-based; conditions: Trichophyton mentagrophytes, 445, 72 h
[12] = tested on: Nakaseomyces glabratus; experiment: Antifungal activity against Candida glabrata 20/I after 24 hrs by microdilution method; type: functional
[13] = tested on: Candida parapsilosis; experiment: Antifungal activity against Candida parapsilosis ATCC 22019 after 48 hrs by microdilution method; type: functional; conditions: Lodderomyces parapsilosis, ATCC 22019, 48 h
[14] = tested on: Pichia kudriavzevii; experiment: Antifungal activity against Candida krusei ATCC 6258 after 48 hrs by microdilution method; type: functional; conditions: ATCC 6258, 48 h
[15] = tested on: Lichtheimia corymbifera; experiment: Antifungal activity against Absidia corymbifera 272 after 48 hrs by microdilution method; type: functional, organism-based; conditions: Lichtheimia corymbifera, 272, 48 h
[16] = tested on: Trichosporon asahii; experiment: Antifungal activity against Trichosporon asahii 1188 after 48 hrs by microdilution method; type: functional; conditions: Trichosporon asahii, 1188, 48 h
[17] = tested on: Nakaseomyces glabratus; experiment: Antifungal activity against Candida glabrata 20/I after 48 hrs by microdilution method; type: functional
[18] = tested on: Candida albicans; experiment: Antifungal activity against Candida albicans ATCC 44859 after 24 hrs by microdilution method; type: functional; conditions: ATCC 44859, 24 h
[19] = tested on: Candida tropicalis; experiment: Antifungal activity against Candida tropicalis 156 after 48 hrs by microdilution method; type: functional; conditions: Candida tropicalis, 156, 48 h
[20] = tested on: Candida albicans; experiment: Antifungal activity against Candida albicans ATCC 90028 after 24 hrs by microdilution method; type: functional; conditions: ATCC 90028, 24 h
[21] = tested on: Aspergillus fumigatus; experiment: Antifungal activity against Aspergillus fumigatus 231 after 48 hrs by microdilution method; type: functional, organism-based; conditions: Aspergillus fumigatus, 231, 48 h
[22] = tested on: HL-60; experiment: Cytostatic activity against human HL60 cells at 10 umol/L after 72 hrs by XTT assay; type: ADME, cell-based; conditions: hl-60, 72 h, 10 µM
[23] = tested on: Aspergillus fumigatus; experiment: Antifungal activity against Aspergillus fumigatus 231 after 24 hrs by microdilution method; type: functional, organism-based; conditions: Aspergillus fumigatus, 231, 24 h
[24] = tested on: L1210; experiment: Cytostatic activity against mouse L1210 cells at 10 umol/L after 72 hrs by XTT assay; type: ADME, cell-based; conditions: l1210, 72 h, 10 µM
[25] = tested on: CCRF-CEM; experiment: Cytostatic activity against human CCRF-CEM cells at 10 umol/L after 72 hrs by XTT assay; type: ADME, cell-based; conditions: 10 µM
[26] = tested on: Clavispora lusitaniae; experiment: Antifungal activity against Candida lusitaniae 2446/I after 24 hrs by microdilution method; type: functional
[27] = tested on: Candida albicans; experiment: Antifungal activity against Candida albicans ATCC 44859 after 48 hrs by microdilution method; type: functional; conditions: ATCC 44859, 48 h
[28] = tested on: Pichia kudriavzevii; experiment: Antifungal activity against Candida krusei ATCC 6258 after 24 hrs by microdilution method; type: functional; conditions: ATCC 6258, 24 h
[29] = tested on: Clavispora lusitaniae; experiment: Antifungal activity against Candida lusitaniae 2446/I after 48 hrs by microdilution method; type: functional
[30] = tested on: Pichia kudriavzevii; experiment: Antifungal activity against Candida krusei E28 after 24 hrs by microdilution method; type: functional; conditions: E28, 24 h
[31] = Cytostatic activity against human HeLaS3 cells after 48 hrs by XTT assay; type: ADME, cell-based; conditions: HeLa S3, 48 h
[32] = tested on: CCRF-CEM; experiment: Cytostatic activity against human CCRF-CEM cells after 72 hrs by XTT assay; type: ADME, cell-based
[33] = Cytostatic activity against human COLO201 cells after 72 hrs by XTT assay; type: ADME, cell-based; conditions: COLO 201, 72 h

IC50 [9] | Structure (SMILES) | IC80 [1] | Activity [3] | IC80 [4] | IC80 [5] | IC80 [7] | IC80 [8] | IC80 [10] | IC80 [11] | IC80 [12] | IC80 [13] | IC80 [14] | IC80 [15] | IC80 [16] | IC80 [17] | IC80 [18] | IC80 [19] | IC80 [20] | IC80 [21] | Activity [22] | also measured
250 µM | O=C1C=CC(=O)C1=C/C=C/c1ccc(Cl)cc1 | > 250 µM | Non-toxic | 62.5 µM | 62.5 µM | 62.5 µM | 62.5 µM | 62.5 µM | 62.5 µM | 62.5 µM | 62.5 µM | 62.5 µM | > 250 µM | 125 µM | 62.5 µM | 62.5 µM | 62.5 µM | 62.5 µM | 125 µM | Non-toxic | Activity [2]: Non-toxic; Activity [6]: Non-toxic; IC80 [23]: 62.5 µM; Activity [24]: Non-toxic; Activity [25]: Non-toxic; IC80 [26]: 62.5 µM; IC80 [27]: 62.5 µM; IC80 [28]: 62.5 µM; IC80 [29]: 62.5 µM; IC80 [30]: 62.5 µM
> 125 µM | Cc1ccc(/C=C/C=C2C(=O)C=CC2=O)cc1 | > 125 µM | Non-toxic | 7.81 µM | 15.6 µM | 7.81 µM | 31.2 µM | 7.81 µM | 125 µM | 31.2 µM | 31.2 µM | 15.6 µM | > 125 µM | > 125 µM | 31.2 µM | 3.9 µM | 7.81 µM | 7.81 µM | > 125 µM | Non-toxic | Activity [6]: Non-toxic; IC50 [31]: 7.3 µM; IC80 [23]: 62.5 µM; Activity [24]: Non-toxic; Activity [25]: Non-toxic; IC80 [26]: 7.81 µM; IC80 [27]: 7.81 µM; IC80 [28]: 7.81 µM; IC80 [29]: 15.6 µM; IC80 [30]: 7.81 µM
0.98 µM | CN(C)c1ccc(C=C2C(=O)C=CC2=O)cc1 | > 125 µM | Non-toxic | 62.5 µM | 7.81 µM | 62.5 µM | 7.81 µM | 3.9 µM | 0.98 µM | 62.5 µM | 7.81 µM | 7.81 µM | > 125 µM | 15.6 µM | > 125 µM | 31.2 µM | > 125 µM | 31.2 µM | 31.2 µM | Non-toxic | IC50 [32]: 4.3 µM; Activity [2]: Non-toxic; IC50 [33]: 1.3 µM; IC80 [23]: 15.6 µM; Activity [24]: Non-toxic; IC80 [26]: 7.81 µM; IC80 [27]: 31.2 µM; IC80 [28]: 7.81 µM; IC80 [29]: 31.2 µM; IC80 [30]: 7.81 µM
500 µM | COc1ccc(/C=C/C=C2C(=O)C=CC2=O)cc1 | > 500 µM | Non-toxic | 250 µM | 250 µM | 250 µM | 250 µM | 250 µM | 250 µM | 250 µM | 250 µM | 250 µM | > 500 µM | 500 µM | 250 µM | 125 µM | 250 µM | 250 µM | 250 µM | Non-toxic | Activity [2]: Non-toxic; Activity [6]: Non-toxic; IC80 [23]: 250 µM; Activity [24]: Non-toxic; Activity [25]: Non-toxic; IC80 [26]: 250 µM; IC80 [27]: 250 µM; IC80 [28]: 250 µM; IC80 [29]: 250 µM; IC80 [30]: 250 µM
